Results as given in patent US11512054B2, “Pesticidal compounds” (BASF SE, priority 2017, dated 2022).

Key:
Type in all cases: in vivo
[1] = test system: boll weevil (Anthonomus grandis); assay: Action on boll weevil, eggs on insect diet in 96-well microtiter plates; details: 120 h, egg and larval mortality after 5 days, read-out: mortality in comparison with untreated controls
Procedure: For evaluating control of boll weevil (Anthonomus grandis) the test unit consisted of 96-well-microtiter plates containing an insect diet and 5-10 A. grandis eggs.
The compounds were formulated using a solution containing 75% (v/v) water and 25% (v/v) DMSO. Different concentrations of formulated compounds were sprayed onto the insect diet at 5 μl, using a custom built micro atomizer, at two replications.
After application, microtiter plates were incubated at about 25+1° C. and about 75+5% relative humidity for 5 days. Egg and larval mortality was then visually assessed.

[2] = test system: Diamond Back Moth (Plutella xylostella); assay: Action on diamond back moth, cabbage leaf dip; details: foliar, 3rd instar larvae, 72 hours after treatment, read-out: mortality in comparison with untreated controls
Procedure: The active compound is dissolved at the desired concentration in a mixture of 1:1 (v/v) distilled water:acetone. Surfactant (Kinetic® HV) is added at a rate of 0.01% (v/v). The test solution is prepared at the day of use.
Leaves of cabbage were dipped in test solution and air-dried. Treated leaves were placed in petri dishes lined with moist filter paper and inoculated with ten 3rd instar larvae. Mortality was recorded 72 hours after treatment. Feeding damages were also recorded using a scale of 0-100%.

[3] = test system: Orchid Thrips (Dichromothrips corbetti); assay: Action on orchid thrips, floral-immersion technique; details: adult thrips, 72 hours after treatment, read-out: mortality in comparison with untreated controls
Procedure: Dichromothrips corbetti adults used for bioassay were obtained from a colony maintained continuously under laboratory conditions. For testing purposes, the test compound is diluted in a 1:1 mixture of acetone:water (vol:vol), plus Kinetic® HV at a rate of 0.01% v/v.
Thrips potency of each compound was evaluated by using a floral-immersion technique. All petals of individual, intact orchid flowers were dipped into treatment solution and allowed to dry in Petri dishes. Treated petals were placed into individual re-sealable plastic along with about 20 adult thrips. All test arenas were held under continuous light and a temperature of about 28° C. for duration of the assay. After 3 days, the numbers of live thrips were counted on each petal. The percent mortality was recorded 72 hours after treatment.

[4] = test system: yellow fever mosquito (Aedes aegypti); assay: whole plant or invertebrate; details: 48 h, larval mortality visually assessed after 2 days, read-out: mortality in comparison with untreated controls
Procedure: For evaluating control of yellow fever mosquito (Aedes aegypti) the test unit consisted of 96-well-microtiter plates containing 200 μl of tap water per well and 5-15 freshly hatched A. aegypti larvae.
The active compounds or mixtures were formulated using a solution containing 75% (v/v) water and 25% (v/v) DMSO. Different concentrations of formulated compounds or mixtures were sprayed onto the insect diet at 2.5 μl, using a custom built micro atomizer, at two replications. For experimental mixtures in these tests identical volumes of both mixing partners at the desired concentrations respectively, were mixed together.
After application, microtiter plates were incubated at 28±1° C., 80±5% RH for 2 days. Larval mortality was then visually assessed.

[5] = test system: tobacco budworm (Heliothis virescens); assay: Action on tobacco budworm, eggs on insect diet in 96-well microtiter plates; details: 120 h, egg and larval mortality after 5 days, read-out: mortality in comparison with untreated controls
Procedure: For evaluating control of tobacco budworm (Heliothis virescens) the test unit consisted of 96-well-microtiter plates containing an insect diet and 15-25 H. virescens eggs.
The compounds were formulated using a solution containing 75% v/v water and 25% v/v DMSO. Different concentrations of formulated compounds were sprayed onto the insect diet at 10 μl, using a custom built micro atomizer, at two replications.
After application, microtiter plates were incubated at about 28+1° C. and about 80+5% relative humidity for 5 days. Egg and larval mortality was then visually assessed.

[6] = test system: Silverleaf Whitefly (Bemisia argentifoli) (Adults); assay: Action on silverleaf whitefly adults, sprayed cotton plants; details: Bemisia argentifolii, 72 h, 3 days after treatment, read-out: mortality in comparison with untreated controls
Procedure: (§1) The active compounds were formulated by a Tecan liquid handler in 100% cyclohexanone as a 10,000 ppm solution supplied in tubes. The 10,000 ppm solution was serially diluted in 100% cyclohexanone to make interim solutions. These served as stock solutions for which final dilutions were made by the Tecan in 50% acetone:50% water (v/v) into 5 or 10 ml glass vials. A nonionic surfactant (Kinetic®) was included in the solution at a volume of 0.01% (v/v). The vials were then inserted into an automated electrostatic sprayer equipped with an atomizing nozzle for application to plants/insects.
Cotton plants at the cotyledon stage (one plant per pot) were sprayed by an automated electrostatic plant sprayer equipped with an atomizing spray nozzle. The plants were dried in the sprayer fume hood and then removed from the sprayer. Each pot was placed into a plastic cup and about 10 to 12 whitefly adults (approximately 3-5 days old) were introduced. The insects were collected using an aspirator and a nontoxic Tygon® tubing connected to a barrier pipette tip. The tip, containing the collected insects, was then gently inserted into the soil containing the treated plant, allowing insects to crawl out of the tip to reach the foliage for feeding. Cups were covered with a reusable screened lid. Test plants were maintained in a growth room at about 25° C. and about 20-40% relative humidity for 3 days, avoiding direct exposure to fluorescent light (24 hour photoperiod) to prevent trapping of heat inside the cup. Mortality was assessed 3 days after treatment, compared to untreated control plants.

[7] = test system: Southern Armyworm (Spodoptera eridania), 2nd Instar Larvae; assay: Action on southern armyworm, sprayed lima bean plants; details: 96 h, 2nd instar larvae on lima bean, 4 days after treatment, read-out: mortality in comparison with untreated controls
Procedure: as §1, with “into 10” for “into 5”, “or 20” for “or 10”
Lima bean plants (variety Sieva) were grown 2 plants to a pot and selected for treatment at the 1st true leaf stage. Test solutions were sprayed onto the foliage by an automated electrostatic plant sprayer equipped with an atomizing spray nozzle. The plants were dried in the sprayer fume hood and then removed from the sprayer. Each pot was placed into perforated plastic bags with a zip closure. About 10 to 11 armyworm larvae were placed into the bag and the bags zipped closed. Test plants were maintained in a growth room at about 25° C. and about 20-40% relative humidity for 4 days, avoiding direct exposure to fluorescent light (24 hour photoperiod) to prevent trapping of heat inside the bags. Mortality and reduced feeding were assessed 4 days after treatment, compared to untreated control plants.

SMILES	mortality at 800 ppm [1]	mortality at 500 ppm [2]	mortality at 500 ppm [3]	mortality at 800 ppm [4]	mortality at 800 ppm [5]	mortality at 300 ppm [6]	mortality at 300 ppm [7]
C/N=C(/c1nn(C)c2cc(/C=N/NC(=S)Nc3ccccc3C(C)C)ccc12)N(C)c1ccc(OC(F)(F)F)cc1 [Example C-3, 1-[(E)-[3-[(Z)—N,N′-dimethyl-N-[4-(trifluoromethoxy)phenyl]carbamimidoyl]-1-methyl-indazol-6-yl]methyleneamino]-3-(2-isopropylphenyl)thiourea]	≥ 75%	≥ 75%	≥ 75%	≥ 50%	≥ 75%		
CO[C@@H]1[C@@H](OC)[C@H](C)O[C@@H](OC(=O)Nc2ccc3c(C(=S)N(C)c4ccc(OC(F)(F)F)cc4)nn(C)c3c2)[C@@H]1OC [Example C-4, [(2S,3R,4R,5S,6S)-3,4,5-trimethoxy-6-methyl-tetrahydropyran-2-yl]N-[1-methyl-3-[methyl-[4-(trifluoromethoxy)phenyl]carbamothioyl]indazol-6-yl]carbamate]	≥ 75%	≥ 75%	≥ 75%	≥ 50%	≥ 75%	≥ 75%	
CON=C(Nc1ccc(OC(F)(F)F)cc1)c1nn(C)c2cc(/C=N/N=C3\SC(=O)CN3c3ccccc3C(C)C)ccc12 [Example C-6, 6-[(E)-[(Z)-[3-(2-isopropylphenyl)-5-oxo-thiazolidin-2-ylidene]hydrazono]methyl]-N′-methoxy-1-methyl-N-[4-(trifluoromethoxy)phenyl]indazole-3-carboxamidine]	≥ 75%	≥ 75%	≥ 75%	≥ 50%	≥ 75%		≥ 75%
CC(C)c1ccccc1NC(=S)N/N=C/c1ccc2c(/C(N)=N/c3ccc(OC(F)(F)F)cc3)nsc2c1 [Example C-20, 1-(2-isopropylphenyl)-3-[(E)-[3-[(Z)—N′-[4-(trifluoromethoxy)phenyl]carbamimidoyl]-1,2-benzothiazol-6-yl]methyleneamino]thiourea]	≥ 75%	≥ 75%	≥ 75%	≥ 50%	≥ 75%		
CC(C)c1ccccc1N1C(=O)CS/C1=N\N=C\c1ccc2c(C(N)=Nc3ccc(OC(F)(F)F)cc3)nsc2c1 [Example C-21, 6-[(E)-[(Z)-[3-(2-isopropylphenyl)-4-oxo-thiazolidin-2-ylidene]hydrazono]methyl]-N′[4-(trifluoromethoxy)phenyl]-1,2-benzothiazole-3-carboxamidine]	≥ 75%	≥ 75%	≥ 75%	≥ 50%	≥ 75%		≥ 75%
CC(C)c1ccccc1NC(=S)N/N=C/c1ccc2c(/C=N/c3ccc(OC(F)(F)F)cc3)nn(C)c2c1 [Example C-24, 1-(2-isopropylphenyl)-3-[(E)-[1-methyl-3-[(E)-[4-(trifluoromethoxy)phenyl]iminomethyl]indazol-6-yl]methyleneamino]thiourea]		≥ 75%		≥ 50%	≥ 75%		
CC(C)c1ccccc1N1C(=O)CS/C1=N\N=C\c1ccc2c(/C=N/c3ccc(OC(F)(F)F)cc3)nn(C)c2c1 [Example C-25, (2Z)-3-(2-isopropylphenyl)-2-[(E)-[1-methyl-3-[(E)-[4-(trifluoromethoxy)phenyl]iminomethyl]indazol-6-yl]methylenehydrazono]thiazolidin-4-one]		≥ 75%			≥ 75%		
CC(C)c1ccccc1NC(=S)N/N=C/c1ccc2c(C(=N)Nc3ccc(OC(F)(F)F)cc3)nn(C)c2n1 [Example C-26, 1-(2-isopropylphenyl)-3-[(E)-[1-methyl-3-[N-[4-(trifluoromethoxy)phenyl]carbamimidoyl]pyrazolo[3,4-b]pyridin-6-yl]methyleneamino]thiourea]	≥ 75%	≥ 75%	≥ 75%	≥ 50%	≥ 75%		≥ 75%
CC(C)c1ccccc1N1C(=O)CS/C1=N\N=C\c1ccc2c(C(=N)Nc3ccc(OC(F)(F)F)cc3)nn(C)c2n1 [Example C-27, 6-[(E)-[(Z)-[3-(2-isopropylphenyl)-4-oxo-thiazolidin-2-ylidene]hydrazono]methyl]-1-methyl-N-[4-(trifluoromethoxy)phenyl]pyrazolo[3,4-b]pyridine-3-carboxamidine]	≥ 75%	≥ 75%	≥ 75%	≥ 50%	≥ 75%		≥ 75%
CC(C)c1ccccc1N1CCS/C1=N\N=C\c1ccc2c(C(=N)Nc3ccc(OC(F)(F)F)cc3)nn(C)c2c1 [Example C-36, 6-[(E)-[(Z)-[3-(2-isopropylphenyl)thiazolidin-2-ylidene]hydrazono]methyl]-1-methyl-N-[4-(trifluoromethoxy)phenyl]indazole-3-carboxamidine]	≥ 75%	≥ 75%	≥ 75%	≥ 50%	≥ 75%		
CC(C)c1ccccc1N1CCCS/C1=N\N=C\c1ccc2c(C(=N)Nc3ccc(OC(F)(F)F)cc3)nn(C)c2c1 [Example C-37, 6-[(E)-[(Z)-[3-(2-isopropylphenyl)-1,3-thiazinan-2-ylidene]hydrazono]methyl]-1-methyl-N-[4-(trifluoromethoxy)phenyl]indazole-3-carboxamidine]	≥ 75%	≥ 75%	≥ 75%	≥ 50%	≥ 75%		
